Reference: patent publication US20230136600A1, “Method and device for screening antigen epitope polypeptide” (priority 2020, published 2023)

Test system: Balb/c mice
Test: Polypeptide chip-based vaccine immunogenicity scoring system
Assay type: in vivo
Design: key to A2: whether the 95 percentile of the last sampling is increased compared with the end point: Y = rise; N = no rise
Conditions: for A1: difference between a highest median and a D 0 median (95 percentile) / A2: whether the 95 percentile of the last sampling is increased compared with the end point: Mix1-10; for A: 95 percentile grouping number score / B: Mouse performance score: total score = 5; for C1: #A timing-sequence response peptide fragment set / C2: #B vaccine specificity peptide fragment set / C3: Intersection of A and B / C4: Percentage of the intersection in set B / C: Timing-sequence response and specificity score: value of the whole mix
Protocol: Data distribution and characteristics thereof are analyzed based on a) and b), a polypeptide chip-based vaccine immunogenicity scoring system (referring to Table 7) is designed.
10 combinations are evaluated by the polypeptide chip-based vaccine immunogenicity scoring system. An evaluation method is consistent with that in Embodiment II. Evaluation results are show in the table below.
This embodiment is consistent with Embodiment II. Each combination is evaluated by the polypeptide chip-based vaccine immunogenicity scoring system. Evaluation results are show in the table below.

[1] = Embodiment III, polypeptide-KLH
[2] = Embodiment III, polypeptide-KLH, A*3 + B*2 + C*1
[3] = adjuvant AddaVax, 7 peptides co-immunized in mice
[4] = adjuvant Adju-Phos, 7 peptides co-immunized in mice
[5] = adjuvant Alhydrogel, 7 peptides co-immunized in mice
[6] = adjuvant Imjet Alumn, 7 peptides co-immunized in mice
[7] = adjuvant MA103A, 7 peptides co-immunized in mice
[8] = adjuvant MA103B, 7 peptides co-immunized in mice

Sequence: ALDPLSETKCT (SARS-CoV-2) [SEQ ID NO:4]
- B1: D 0-D 14 95 percentile rise in the number of mice [1]: 2
- B2: D 0-D 21 95 percentile rise in the number of mice [1]: 3
- B3: D 14-D 21 95 percentile rise in the number of mice [1]: 2
- B4: D 21-D 28 95 percentile rise in the number of mice [1]: 0
- A1: difference between a highest median and a D 0 median (95 percentile) [1]: 0.15
- A2: whether the 95 percentile of the last sampling is increased compared with the end point [1]: N
- Total single peptide [2]: 17.7
- A: 95 percentile grouping number score [1]: 4.5
- B: Mouse performance score [1]: 1.6
- C1: #A timing-sequence response peptide fragment set [1]: 1494
- C2: #B vaccine specificity peptide fragment set [1]: 190
- C3: Intersection of A and B [1]: 2
- C4: Percentage of the intersection in set B [1]: 1.053
- C: Timing-sequence response and specificity score [1]: 1

Sequence: ECVLGQSKR (SARS-CoV-2) [SEQ ID NO:10]
- B1: D 0-D 14 95 percentile rise in the number of mice [1]: 3
- B2: D 0-D 21 95 percentile rise in the number of mice [1]: 3
- B3: D 14-D 21 95 percentile rise in the number of mice [1]: 1
- B4: D 21-D 28 95 percentile rise in the number of mice [1]: 0
- A1: difference between a highest median and a D 0 median (95 percentile) [1]: 0.11
- A2: whether the 95 percentile of the last sampling is increased compared with the end point [1]: N
- Total single peptide [2]: 17.9
- A: 95 percentile grouping number score [1]: 4.5
- B: Mouse performance score [1]: 1.7
- C1: #A timing-sequence response peptide fragment set [1]: 1494
- C2: #B vaccine specificity peptide fragment set [1]: 190
- C3: Intersection of A and B [1]: 2
- C4: Percentage of the intersection in set B [1]: 1.053
- C: Timing-sequence response and specificity score [1]: 1

Sequence: KVFRSSVLHSTQ [SEQ ID NO:6]
- B1: D 0-D 14 95 percentile rise in the number of mice [1]: 3
- B2: D 0-D 21 95 percentile rise in the number of mice [1]: 3
- B3: D 14-D 21 95 percentile rise in the number of mice [1]: 0
- B4: D 21-D 28 95 percentile rise in the number of mice [1]: 2
- A1: difference between a highest median and a D 0 median (95 percentile) [1]: 0.09
- A2: whether the 95 percentile of the last sampling is increased compared with the end point [1]: Y
- Total single peptide [2]: 16.3
- A: 95 percentile grouping number score [1]: 4
- B: Mouse performance score [1]: 1.9
- C1: #A timing-sequence response peptide fragment set [1]: 1212
- C2: #B vaccine specificity peptide fragment set [1]: 389
- C3: Intersection of A and B [1]: 1
- C4: Percentage of the intersection in set B [1]: 0.257
- C: Timing-sequence response and specificity score [1]: 0.5

Sequence: DYNYKLPDD (SARS-CoV-2) [SEQ ID NO:11]
- B1: D 0-D 14 95 percentile rise in the number of mice [1]: 3
- B2: D 0-D 21 95 percentile rise in the number of mice [1]: 3
- B3: D 14-D 21 95 percentile rise in the number of mice [1]: 1
- B4: D 21-D 28 95 percentile rise in the number of mice [1]: 2
- A1: difference between a highest median and a D 0 median (95 percentile) [1]: 0.12
- A2: whether the 95 percentile of the last sampling is increased compared with the end point [1]: Y
- Total single peptide [2]: 20.2
- A: 95 percentile grouping number score [1]: 5
- B: Mouse performance score [1]: 2.1
- C1: #A timing-sequence response peptide fragment set [1]: 288
- C2: #B vaccine specificity peptide fragment set [1]: 268
- C3: Intersection of A and B [1]: 4
- C4: Percentage of the intersection in set B [1]: 1.493
- C: Timing-sequence response and specificity score [1]: 1

Sequence: LQDLKWARFPKS [SEQ ID NO:29]
- B1: D 0-D 14 95 percentile rise in the number of mice [1]: 3
- B2: D 0-D 21 95 percentile rise in the number of mice [1]: 3
- B3: D 14-D 21 95 percentile rise in the number of mice [1]: 2
- B4: D 21-D 28 95 percentile rise in the number of mice [1]: 0
- A1: difference between a highest median and a D 0 median (95 percentile) [1]: 0.10
- A2: whether the 95 percentile of the last sampling is increased compared with the end point [1]: N
- Total single peptide [2]: 16.3
- A: 95 percentile grouping number score [1]: 4
- B: Mouse performance score [1]: 1.9
- C1: #A timing-sequence response peptide fragment set [1]: 257
- C2: #B vaccine specificity peptide fragment set [1]: 682
- C3: Intersection of A and B [1]: 3
- C4: Percentage of the intersection in set B [1]: 0.440
- C: Timing-sequence response and specificity score [1]: 0.5
- 1) 95 percentile grouping number A [3]: 4
- 1) 95 percentile grouping number A1 [3]: 0.055
- 2) Mouse performance B [3]: 3.5
- 2) Mouse performance B1 [3]: 3
- 2) Mouse performance B2 [3]: 5
- 2) Mouse performance B3 [3]: 4
- 3) Timing-sequence response and specificity C [3]: 0
- 3) Timing-sequence response and specificity C1 [3]: 237
- 3) Timing-sequence response and specificity C2 [3]: 1244
- 3) Timing-sequence response and specificity C3 [3]: 0
- 3) Timing-sequence response and specificity C4 [3]: 0.000
- Total single peptide [3]: 19
- 1) 95 percentile grouping number A [4]: 3.5
- 1) 95 percentile grouping number A1 [4]: 0.055
- 2) Mouse performance B [4]: 1.9
- 2) Mouse performance B1 [4]: 3
- 2) Mouse performance B2 [4]: 3
- 2) Mouse performance B3 [4]: 1
- 3) Timing-sequence response and specificity C [4]: 0
- 3) Timing-sequence response and specificity C1 [4]: 203
- 3) Timing-sequence response and specificity C2 [4]: 1244
- 3) Timing-sequence response and specificity C3 [4]: 0
- 3) Timing-sequence response and specificity C4 [4]: 0.000
- Total single peptide [4]: 14.3
- 1) 95 percentile grouping number A [5]: 3
- 1) 95 percentile grouping number A1 [5]: 0.04
- 2) Mouse performance B [5]: 1.9
- 2) Mouse performance B1 [5]: 5
- 2) Mouse performance B2 [5]: 2
- 2) Mouse performance B3 [5]: 0
- 3) Timing-sequence response and specificity C [5]: 1
- 3) Timing-sequence response and specificity C1 [5]: 123
- 3) Timing-sequence response and specificity C2 [5]: 1244
- 3) Timing-sequence response and specificity C3 [5]: 2
- 3) Timing-sequence response and specificity C4 [5]: 0.161
- Total single peptide [5]: 13.3
- 1) 95 percentile grouping number A [6]: 5
- 1) 95 percentile grouping number A1 [6]: 0.08
- 2) Mouse performance B [6]: 2.5
- 2) Mouse performance B1 [6]: 5
- 2) Mouse performance B2 [6]: 3
- 2) Mouse performance B3 [6]: 1
- 3) Timing-sequence response and specificity C [6]: 1
- 3) Timing-sequence response and specificity C1 [6]: 100
- 3) Timing-sequence response and specificity C2 [6]: 1244
- 3) Timing-sequence response and specificity C3 [6]: 3
- 3) Timing-sequence response and specificity C4 [6]: 0.241
- Total single peptide [6]: 20.5
- 1) 95 percentile grouping number A [7]: 5
- 1) 95 percentile grouping number A1 [7]: 0.08
- 2) Mouse performance B [7]: 2.9
- 2) Mouse performance B1 [7]: 5
- 2) Mouse performance B2 [7]: 5
- 2) Mouse performance B3 [7]: 1
- 3) Timing-sequence response and specificity C [7]: 1
- 3) Timing-sequence response and specificity C1 [7]: 260
- 3) Timing-sequence response and specificity C2 [7]: 1244
- 3) Timing-sequence response and specificity C3 [7]: 3
- 3) Timing-sequence response and specificity C4 [7]: 0.241
- Total single peptide [7]: 21.3
- 1) 95 percentile grouping number A [8]: 4.5
- 1) 95 percentile grouping number A1 [8]: 0.065
- 2) Mouse performance B [8]: 3.7
- 2) Mouse performance B1 [8]: 5
- 2) Mouse performance B2 [8]: 5
- 2) Mouse performance B3 [8]: 3
- 3) Timing-sequence response and specificity C [8]: 0
- 3) Timing-sequence response and specificity C1 [8]: 153
- 3) Timing-sequence response and specificity C2 [8]: 1244
- 3) Timing-sequence response and specificity C3 [8]: 0
- 3) Timing-sequence response and specificity C4 [8]: 0.000
- Total single peptide [8]: 20.9

Sequence: GTITVEELKK (SARS-CoV-2) [SEQ ID NO:39]
- B1: D 0-D 14 95 percentile rise in the number of mice [1]: 1
- B2: D 0-D 21 95 percentile rise in the number of mice [1]: 2
- B3: D 14-D 21 95 percentile rise in the number of mice [1]: 2
- B4: D 21-D 28 95 percentile rise in the number of mice [1]: 0
- A1: difference between a highest median and a D 0 median (95 percentile) [1]: 0.03
- A2: whether the 95 percentile of the last sampling is increased compared with the end point [1]: N
- Total single peptide [2]: 5.7
- A: 95 percentile grouping number score [1]: 1
- B: Mouse performance score [1]: 1.1
- C1: #A timing-sequence response peptide fragment set [1]: 145
- C2: #B vaccine specificity peptide fragment set [1]: 529
- C3: Intersection of A and B [1]: 1
- C4: Percentage of the intersection in set B [1]: 0.189
- C: Timing-sequence response and specificity score [1]: 0.5
